# Data from patent US20140193827A1 (TEVA PHARMACEUTICAL INDUSTRIES, LTD., priority 2013, published 2014).
# Tested on: GA-primed murine splenocytes
# Assay: ANOVA-based pattern identification method
# Type: cell-based, mouse
# Source text: We sought to identify probes matching specific patterns of expression across experimental conditions using a technique that referred to as the ANOVA-based Pattern Identification Method.
# To carry out the analysis in a general manner, we computed the 6 p-values required to do pairwise comparisons of all 4 conditions for all probes using the ANOVA1 function in MATLAB. We then identified sets of probes matching the desired pattern. In the example above, probes were identified as being only affected by PG if their 6 pairwise comparison pvalues matched the following pattern (pGA-PG<0.05, pPG-reference standard<0.05, pPG-Medium<0.05, pGAMedium>0.05, pGA-reference standard>0.05, preference standard-Medium>0.05).
# [1] = DOWN IN GA AND REF ONLY, first line for this gene
# [2] = DOWN IN GA AND REF ONLY, second line for this gene
substance,measurement,setting,value
glatiramer acetate [GA],average expression of LOC382163,DOWN IN GA AND REF ONLY,6.742
same,average expression of LOC383099,DOWN IN GA AND REF ONLY,13.14
same,average expression of LOC386085,DOWN IN GA AND REF ONLY,6.21
same,average expression of LOC386117,DOWN IN GA AND REF ONLY,7.052
same,average expression of LOC636818,DOWN IN GA AND REF ONLY,5.986
same,average expression of LOC100046003,DOWN IN GA AND REF ONLY,8.735
same,average expression of LYNX1,DOWN IN GA AND REF ONLY,8.531
same,average expression of MBD1,DOWN IN GA AND REF ONLY,9.009
same,average expression of MBL1,DOWN IN GA AND REF ONLY,5.552
same,average expression of MKL1,DOWN IN GA AND REF ONLY,6.303
same,average expression of MREG,DOWN IN GA AND REF ONLY,8.88
same,average expression of MYO7A,DOWN IN GA AND REF ONLY,6.668
same,average expression of NEURL,DOWN IN GA AND REF ONLY,5.956
same,average expression of NISCH,DOWN IN GA AND REF ONLY,7.088
same,average expression of NOS3,DOWN IN GA AND REF ONLY,5.804
same,average expression of NTE,DOWN IN GA AND REF ONLY,8.3088
same,average expression of OLFR150,DOWN IN GA AND REF ONLY,5.626
same,average expression of OLFR516,DOWN IN GA AND REF ONLY,5.76
same,average expression of OLFR586,DOWN IN GA AND REF ONLY,5.541
same,average expression of OPHN1,DOWN IN GA AND REF ONLY,5.71
same,average expression of ORF19,DOWN IN GA AND REF ONLY,6.879
same,average expression of P2RX4,DOWN IN GA AND REF ONLY,7.358
same,average expression of PAPSS2,DOWN IN GA AND REF ONLY,6.662
same,average expression of PARD3B,DOWN IN GA AND REF ONLY,5.905
same,average expression of PCBP2,DOWN IN GA AND REF ONLY,12.63
same,average expression of PCDH19,DOWN IN GA AND REF ONLY,5.63
same,average expression of PEO1,DOWN IN GA AND REF ONLY,7.1356
same,average expression of PI4KB,DOWN IN GA AND REF ONLY,9.544
same,average expression of PIK3R6,DOWN IN GA AND REF ONLY,6.343
same,average expression of PLEKHB2,DOWN IN GA AND REF ONLY,9.006
same,average expression of PREP,DOWN IN GA AND REF ONLY,7.918
same,average expression of PRKCZ,DOWN IN GA AND REF ONLY,6.967
same,average expression of PROM,DOWN IN GA AND REF ONLY,5.87
same,average expression of RARG,DOWN IN GA AND REF ONLY,6.121
same,average expression of RASGRF1,DOWN IN GA AND REF ONLY,5.764
same,average expression of RBM15,DOWN IN GA AND REF ONLY,7.902
same,average expression of RCCD1,DOWN IN GA AND REF ONLY,8.174
same,average expression of REN1,DOWN IN GA AND REF ONLY,5.599
same,average expression of RFFL,DOWN IN GA AND REF ONLY,7.211
same,average expression of RHBDD1,DOWN IN GA AND REF ONLY,7.627
same,average expression of RING1,DOWN IN GA AND REF ONLY,8.656
same,average expression of RNF10,DOWN IN GA AND REF ONLY,11.45
same,average expression of RNF123,DOWN IN GA AND REF ONLY,7.4966
same,average expression of S031414D18RIK,DOWN IN GA AND REF ONLY,8.467
same,average expression of SCL0004023.1_57,DOWN IN GA AND REF ONLY,5.99
same,average expression of SEC16A,DOWN IN GA AND REF ONLY,9.968
same,average expression of SETD1A,DOWN IN GA AND REF ONLY,8.956
same,average expression of SFXN3,DOWN IN GA AND REF ONLY,6.025
same,average expression of SGPL1,DOWN IN GA AND REF ONLY,7.481
same,average expression of SHC1,DOWN IN GA AND REF ONLY,11.03
same,average expression of SHKBP1,DOWN IN GA AND REF ONLY,8.287
same,average expression of SLC9A4,DOWN IN GA AND REF ONLY,5.715
same,average expression of SLC25A42,DOWN IN GA AND REF ONLY,6.212
same,average expression of SLC35E4,DOWN IN GA AND REF ONLY,5.806
same,average expression of SLCO6C1,DOWN IN GA AND REF ONLY,5.618
same,average expression of SMARCE1,DOWN IN GA AND REF ONLY,9.332
same,average expression of SNX15,DOWN IN GA AND REF ONLY,9.294
same,average expression of SNX33,DOWN IN GA AND REF ONLY,6.987
same,average expression of SOLH,DOWN IN GA AND REF ONLY,7.952
same,average expression of SP2,DOWN IN GA AND REF ONLY,6.867
same,average expression of SRGAP2,DOWN IN GA AND REF ONLY,7.797
same,average expression of SRGAP3,DOWN IN GA AND REF ONLY,6.074
same,average expression of STARD3,DOWN IN GA AND REF ONLY,8.435
same,average expression of TBC1D2,DOWN IN GA AND REF ONLY,6.839
same,average expression of TBC1D25,DOWN IN GA AND REF ONLY,7.965
same,average expression of TEAD4,DOWN IN GA AND REF ONLY,5.994
same,average expression of TGFBI,DOWN IN GA AND REF ONLY,6.19
same,average expression of TGIF1,DOWN IN GA AND REF ONLY,8.224
same,average expression of TIMM8A2,DOWN IN GA AND REF ONLY,5.837
same,average expression of TLR13,DOWN IN GA AND REF ONLY,6.019
same,average expression of TMEM56,DOWN IN GA AND REF ONLY,5.549
same,average expression of TMEM63A,DOWN IN GA AND REF ONLY,7.667
same,average expression of TMUB1,DOWN IN GA AND REF ONLY,8.55
same,average expression of TNS4,DOWN IN GA AND REF ONLY,5.759
same,average expression of TRP53,DOWN IN GA AND REF ONLY,9.698
same,average expression of TYROBP,DOWN IN GA AND REF ONLY,7.408
same,average expression of USP11,DOWN IN GA AND REF ONLY,6.423
same,average expression of USP22,DOWN IN GA AND REF ONLY,9.057
same,average expression of USP54,DOWN IN GA AND REF ONLY,6.972
same,average expression of WWP2,DOWN IN GA AND REF ONLY,8.833
same,average expression of ZC3H12A,DOWN IN GA AND REF ONLY,8.215
same,average expression of ZFP36L1,DOWN IN GA AND REF ONLY,13.82
same,average expression of ZFP317,DOWN IN GA AND REF ONLY,7.218
same,average expression of ZFP704,DOWN IN GA AND REF ONLY,5.829
same,average expression of ZFPL1,DOWN IN GA AND REF ONLY,7.39
same,genericLS expression level,DOWN IN GA AND REF ONLY,6.212
same,average expression of CLEC4B1,[1],5.984
same,average expression of LOC100048105,[1],13.17
same,average expression of SLC11A1,[1],6.429
same,average expression of CLEC4B1,[2],5.725
same,average expression of LOC100048105,[2],13.47
same,average expression of SLC11A1,[2],6.896
same,average expression of GAS7,"DOWN IN GA AND REF ONLY, second line for this gene (first at r2479)",6.6505
same,29D0003A17RIK expression level,DOWN IN generic ONLY,6.032
same,1700081L16RIK expression level,DOWN IN generic ONLY,5.561
same,2210003I03RIK expression level,DOWN IN generic ONLY,5.693
same,3110052M02RIK expression level,DOWN IN generic ONLY,5.651
same,3110079O15RIK expression level,DOWN IN generic ONLY,5.642
same,4833419KD8RIK expression level,DOWN IN generic ONLY,5.588
same,4921522P10RIK expression level,DOWN IN generic ONLY,5.793
same,4930543E05RIK expression level,DOWN IN generic ONLY,5.681
same,4930571C24RIK expression level,DOWN IN generic ONLY,5.414
same,5730599A22RIK expression level,DOWN IN generic ONLY,5.675
same,6430527G18RIK expression level,DOWN IN generic ONLY,5.618
same,6720487G11RIK expression level,DOWN IN generic ONLY,5.949
same,A230066D03RIK expression level,DOWN IN generic ONLY,5.913
same,A530088H08RIK expression level,DOWN IN generic ONLY,5.838
same,A830021M18 expression level,DOWN IN generic ONLY,5.662
same,ADAMTSL3 expression level,DOWN IN generic ONLY,5.806
same,B230323D24RIK expression level,DOWN IN generic ONLY,5.81
same,BRPF1 expression level,DOWN IN generic ONLY,8.958
same,BTF3L4 expression level,DOWN IN generic ONLY,5.682
same,C430020E23RIK expression level,DOWN IN generic ONLY,5.906
same,CNTN2 expression level,DOWN IN generic ONLY,5.729
same,CORO1B expression level,DOWN IN generic ONLY,11.36
same,CRAT expression level,DOWN IN generic ONLY,5.921
same,CREBZF expression level,DOWN IN generic ONLY,5.66
same,D130050A01RIK expression level,DOWN IN generic ONLY,5.633
same,D130061E05RIK expression level,DOWN IN generic ONLY,5.723
same,D130063P19RIK expression level,DOWN IN generic ONLY,5.768
same,D530031C13RIK expression level,DOWN IN generic ONLY,5.728
same,DLG1 expression level,DOWN IN generic ONLY,5.734
same,EFCAB1 expression level,DOWN IN generic ONLY,5.72
same,EG634762 expression level,DOWN IN generic ONLY,5.772
same,ELMO2 expression level,DOWN IN generic ONLY,5.907
same,ENSMUSG00000071316 expression level,DOWN IN generic ONLY,5.766
same,EZH2 expression level,DOWN IN generic ONLY,5.625
